What was measured:
Assay type in all cases: in vivo
kochia (Kochia scoparia) [1] = assay: Test A greenhouse herbicide test, pre- and postemergence
In short: (§1)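 Seeds sown in loam–sand blend got a preemergence directed soil spray of compound in non-phytotoxic solvent with surfactant. Postemergence treatment was given at 2–10 cm, one- to two-leaf stage. After ~10 d in greenhouse, injury was rated visually vs untreated controls, 0 (no effect) to 100 (complete control).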

[2] = test system: ragweed (common ragweed, Ambrosia elatior); assay: as above
In short: as §1

[3] = test system: pigweed (Amaranthus retroflexus); assay: as above
In short: as §1

[4] = test system: barnyardgrass (Echinochloa crus-galli); assay: as above
In short: as §1

[5] = test system: sedge, umbrella (small-flower umbrella sedge, Cyperus difformis); assay: Test B flooded paddy test; details: 250 g ai/ha, Flood; visual rating on scale of 0 to 100 where 0 is no effect and 100 is complete control; 13 to 15 d after treatment
In short: (§2)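 Plants at the 2-leaf stage were flooded to 3 cm above soil, and test compounds were applied directly into the paddy water, which was held at that depth throughout. After 13 to 15 d in a greenhouse, injury was rated visually against untreated controls on a 0–100 scale (0 no effect, 100 complete control).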

rice (Oryza sativa) = assay: Test B flooded paddy test; details: 250 g ai/ha, Flood; visual rating on scale of 0 to 100 where 0 is no effect and 100 is complete control; 13 to 15 d after treatment
In short: as §2

[6] = test system: barnyardgrass (Echinochloa crus-galli); assay: Test B flooded paddy test; details: 250 g ai/ha, Flood; visual rating on scale of 0 to 100 where 0 is no effect and 100 is complete control; 13 to 15 d after treatment
In short: as §2

[7] = test system: ducksalad (Heteranthera limosa); assay: Test B flooded paddy test; details: 250 g ai/ha, Flood; visual rating on scale of 0 to 100 where 0 is no effect and 100 is complete control; 13 to 15 d after treatment
In short: as §2

kochia (Kochia scoparia) [8] = assay: Test C greenhouse herbicide test, postemergence
In short: (§3)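 Postemergence foliar treatment, 1- to 4-leaf stage (2–18 cm), peat/vermiculite medium; greenhouse 13–15 d; visual rating vs controls, 0 = no effect, 100 = complete control; dash = no result.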

[9] = test system: chickweed (common chickweed, Stellaria media); assay: Test C greenhouse herbicide test, postemergence
In short: as §3

[10] = test system: oat, wild (wild oat, Avena fatua); assay: Test C greenhouse herbicide test, postemergence
In short: as §3

[11] = Postemergence, 125 g ai/ha, 0 to 100 scale where 0 is no effect and 100 is complete control
[12] = Postemergence, 500 g ai/ha, visual rating after approx. 10 d, 0 to 100 scale (0 no effect, 100 complete control)
[13] = Preemergence, 125 g ai/ha, 0 to 100 scale where 0 is no effect and 100 is complete control
[14] = Preemergence, 500 g ai/ha, 0 to 100 scale where 0 is no effect and 100 is complete control
[15] = Postemergence, 31 g ai/ha, scale 0 to 100 (0 no effect, 100 complete control)
[16] = Postemergence, 62 g ai/ha, 0 to 100 scale (0 no effect, 100 complete control)
[17] = Postemergence, 250 g ai/ha, scale 0 to 100, 0 no effect, 100 complete control, 13 to 15 d
[18] = postemergence, 125 g ai/ha, scale 0 to 100, 0 no effect, 100 complete control
[19] = Postemergence, 125 g ai/ha, visual rating after approx. 10 d, 0 to 100 scale (0 no effect, 100 complete control)
[20] = Postemergence, 500 g ai/ha, 0 to 100 scale, 0 is no effect, 100 is complete control
[21] = Preemergence, 500 g ai/ha, 0 to 100 scale, 0 no effect, 100 complete control
[22] = Postemergence, 16 g ai/ha, scale 0 to 100 (0 no effect, 100 complete control)
[23] = Postemergence, 31 g ai/ha, 0 to 100 scale (0 no effect, 100 complete control)
[24] = postemergence, 62 g ai/ha, scale 0 to 100, 0 no effect, 100 complete control
[25] = Postemergence, 8 g ai/ha, scale 0 to 100 (0 no effect, 100 complete control)
[26] = Postemergence, 125 g ai/ha, scale 0 to 100, 0 is no effect, 100 is complete control

CC(=O)Oc1c(C)nn(C)c(=O)c1-c1c(C)sc2ccc(C(F)(F)F)cc12 [Compound 132]
60: Kochia plant response rating (kochia (Kochia scoparia) [1]; [13]) | Plant response rating, Pigweed [3, 11] | Oat, Wild plant response rating [10, 16]
90: Plant response rating, Kochia (kochia (Kochia scoparia) [1]; [14]) | Plant response rating, Ragweed [2, 14] | Plant response rating, Pigweed [3, 12] | Pigweed plant response rating [3, 13] | Kochia plant response rating (kochia (Kochia scoparia) [8]; [16]) | Plant response rating, Chickweed [9, 15] | Chickweed plant response rating [9, 16] | Plant response rating, Oat, Wild [10, 17]
100: Plant response rating, Ragweed [2, 11] | Plant response rating, Ragweed [2, 12] | Plant response rating, Pigweed [3, 14]
70: Plant response rating, Barnyardgrass [4, 14] | Oat, Wild plant response rating [10, 18]
50: Plant response rating, Kochia (kochia (Kochia scoparia) [1]; [11])
95: Plant response rating, Kochia (kochia (Kochia scoparia) [8]; [17]) | Kochia plant response rating (kochia (Kochia scoparia) [8]; [18]) | Plant response rating, Chickweed [9, 17] | Chickweed plant response rating [9, 18]
30: Plant response rating, Barnyardgrass [4, 12]
0: Plant response rating, Barnyardgrass [4, 11] | Barnyardgrass plant response rating [4, 13] | Plant response rating, Sedge, Umbrella [5] | Plant response rating, Rice (rice (Oryza sativa)) | Plant response rating, Barnyardgrass [6] | Plant response rating, Ducksalad [7]
40: Plant response rating, Oat, Wild [10, 15]
85: Plant response rating, Kochia (kochia (Kochia scoparia) [8]; [15])
80: Plant response rating, Kochia (kochia (Kochia scoparia) [1]; [12]) | Ragweed plant response rating [2, 13]

Cc1nn(C)c(=O)c(-c2c(C)sc3c(C)cc(Cl)cc23)c1O [Compound 35]
0: Plant response rating, Rice (rice (Oryza sativa)) | Plant response rating, Barnyardgrass [6]
65: Plant response rating, Sedge, Umbrella [5]
10: Plant response rating, Oat, Wild [10, 25]
80: Plant response rating, Kochia (kochia (Kochia scoparia) [1]; [19]) | Ragweed plant response rating [2, 20] | Plant response rating, Ragweed [2, 21] | Plant response rating, Pigweed [3, 19]
75: Plant response rating, Ducksalad [7]
95: Chickweed plant response rating [9, 23] | Chickweed plant response rating [9, 24]
30: Plant response rating, Kochia (kochia (Kochia scoparia) [8]; [22]) | Kochia plant response rating (kochia (Kochia scoparia) [8]; [23]) | Plant response rating, Oat, Wild [10, 22]
40: Kochia plant response rating (kochia (Kochia scoparia) [1]; [13]) | Kochia plant response rating (kochia (Kochia scoparia) [8]; [24]) | Oat, Wild plant response rating [10, 23]
60: Pigweed plant response rating [3, 13] | Barnyardgrass plant response rating [4, 13] | Oat, Wild plant response rating [10, 24]
100: Kochia plant response rating (kochia (Kochia scoparia) [1]; [20])
90: Pigweed plant response rating [3, 20] | Plant response rating, Pigweed [3, 21] | Barnyardgrass plant response rating [4, 20] | Plant response rating, Barnyardgrass [4, 21] | Plant response rating, Chickweed [9, 25] | Plant response rating, Chickweed [9, 22]
70: Plant response rating, Kochia (kochia (Kochia scoparia) [1]; [21]) | Ragweed plant response rating [2, 13]
50: Plant response rating, Ragweed [2, 19] | Plant response rating, Barnyardgrass [4, 19]

Cc1ccc2sc(Br)c(-c3c(O)c(C)nn(C)c3=O)c2c1 [Compound 79]
85: Plant response rating, Oat, Wild [10, 26]
70: Kochia plant response rating (kochia (Kochia scoparia) [1]; [13]) | Plant response rating, Barnyardgrass [4, 21]
50: Plant response rating, Barnyardgrass [4, 11] | Barnyardgrass plant response rating [4, 13] | Kochia plant response rating (kochia (Kochia scoparia) [8]; [23]) | Oat, Wild plant response rating [10, 23]
60: Oat, Wild plant response rating [10, 24]
0: Plant response rating, Sedge, Umbrella [5] | Plant response rating, Rice (rice (Oryza sativa)) | Plant response rating, Barnyardgrass [6] | Plant response rating, Ducksalad [7]
90: Kochia plant response rating (kochia (Kochia scoparia) [1]; [20]) | Plant response rating, Kochia (kochia (Kochia scoparia) [1]; [14]) | Plant response rating, Ragweed [2, 11] | Ragweed plant response rating [2, 20] | Plant response rating, Pigweed [3, 11] | Pigweed plant response rating [3, 20] | Plant response rating, Kochia (kochia (Kochia scoparia) [8]; [26]) | Plant response rating, Kochia (kochia (Kochia scoparia) [8]; [17]) | Kochia plant response rating (kochia (Kochia scoparia) [8]; [24]) | Chickweed plant response rating [9, 23] | Plant response rating, Chickweed [9, 26] | Plant response rating, Chickweed [9, 17] | Chickweed plant response rating [9, 24] | Plant response rating, Oat, Wild [10, 17]
100: Pigweed plant response rating [3, 13] | Plant response rating, Pigweed [3, 14]
80: Plant response rating, Kochia (kochia (Kochia scoparia) [1]; [11]) | Ragweed plant response rating [2, 13] | Plant response rating, Ragweed [2, 14] | Barnyardgrass plant response rating [4, 20]

Cc1ccc2ccccc2c1-c1c(O)c(Br)nn(C)c1=O [Compound 23]
0: Plant response rating, Rice (rice (Oryza sativa)) | Plant response rating, Barnyardgrass [6]
95: Plant response rating, Sedge, Umbrella [5] | Kochia plant response rating (kochia (Kochia scoparia) [8]; [23]) | Kochia plant response rating (kochia (Kochia scoparia) [8]; [24]) | Oat, Wild plant response rating [10, 24]
85: Oat, Wild plant response rating [10, 23]
80: Kochia plant response rating (kochia (Kochia scoparia) [1]; [13]) | Plant response rating, Barnyardgrass [4, 19]
100: Plant response rating, Kochia (kochia (Kochia scoparia) [1]; [19]) | Kochia plant response rating (kochia (Kochia scoparia) [1]; [20]) | Plant response rating, Kochia (kochia (Kochia scoparia) [1]; [21]) | Ragweed plant response rating [2, 20] | Plant response rating, Pigweed [3, 19] | Pigweed plant response rating [3, 20] | Pigweed plant response rating [3, 13] | Plant response rating, Pigweed [3, 21] | Plant response rating, Kochia (kochia (Kochia scoparia) [8]; [26]) | Plant response rating, Kochia (kochia (Kochia scoparia) [8]; [17]) | Chickweed plant response rating [9, 23] | Plant response rating, Chickweed [9, 26] | Plant response rating, Chickweed [9, 17] | Chickweed plant response rating [9, 24] | Plant response rating, Oat, Wild [10, 26] | Plant response rating, Oat, Wild [10, 17]
75: Plant response rating, Ducksalad [7]
90: Plant response rating, Ragweed [2, 19] | Ragweed plant response rating [2, 13] | Plant response rating, Ragweed [2, 21] | Barnyardgrass plant response rating [4, 20] | Barnyardgrass plant response rating [4, 13] | Plant response rating, Barnyardgrass [4, 21]

Reference: patent publication US10597388B2, “Pyridazinone herbicides” (FMC CORPORATION, priority 2014, dated 2020)
